As usually defined, the EC50 is the concentration that produces a half-maximal response. By half-life is commonly meant the time needed for the level to fall by half in the phase considered. A lower half-life goes with rapid decline.

Consider three molecules from patent US20240067693A1, “POLYPEPTIDES AND USES THEREOF” (MEDIMMUNE LIMITED, priority 2020, published 2024).

Data set [1] has as its target T1, human calcitonin receptor (hCTR) (Homo sapiens, UniProt P30988).
T1 construct: expressed in transfected cells
T1 sequence (P30988 25-474): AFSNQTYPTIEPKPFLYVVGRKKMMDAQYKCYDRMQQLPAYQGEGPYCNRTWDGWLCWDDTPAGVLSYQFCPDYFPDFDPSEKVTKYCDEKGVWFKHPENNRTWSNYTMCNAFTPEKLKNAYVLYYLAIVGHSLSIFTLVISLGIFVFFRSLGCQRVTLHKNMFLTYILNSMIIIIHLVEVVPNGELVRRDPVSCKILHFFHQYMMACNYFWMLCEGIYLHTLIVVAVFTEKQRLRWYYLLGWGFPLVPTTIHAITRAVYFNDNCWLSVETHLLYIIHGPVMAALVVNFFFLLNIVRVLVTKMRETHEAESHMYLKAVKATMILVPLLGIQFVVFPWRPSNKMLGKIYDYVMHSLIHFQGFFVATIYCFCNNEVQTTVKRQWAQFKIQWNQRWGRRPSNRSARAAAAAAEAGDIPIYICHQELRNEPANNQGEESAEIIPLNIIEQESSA
In words: cAMP production in 1321N1 cells with stable recombinant expression of human calcitonin receptor (hCTR). The data set is classed as cell-based. To be noted: cAMP, 1321N1 cells, assay buffer with 0.1% BSA; read-out: EC50 (pM) hCTR. An outline of the steps:
(§1)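 Thawed cells in HBSS/0.1% BSA/25 mM HEPES pH 7.4 with 0.5 mM IBMX were incubated with peptides 30 min at room temperature; cAMP read by HTRF. EC50 from 4-parameter fit of % activation relative to maximal amylin or calcitonin effect.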
On the technique in general: Changes in cAMP serve as a functional read-out for many G protein-coupled receptors.

Data set [2] concerns the target T2, rat calcitonin receptor (rat CTR) (Rattus norvegicus, UniProt P32214).
T2 construct: expressed in transfected cells
T2 sequence (P32214 25-516): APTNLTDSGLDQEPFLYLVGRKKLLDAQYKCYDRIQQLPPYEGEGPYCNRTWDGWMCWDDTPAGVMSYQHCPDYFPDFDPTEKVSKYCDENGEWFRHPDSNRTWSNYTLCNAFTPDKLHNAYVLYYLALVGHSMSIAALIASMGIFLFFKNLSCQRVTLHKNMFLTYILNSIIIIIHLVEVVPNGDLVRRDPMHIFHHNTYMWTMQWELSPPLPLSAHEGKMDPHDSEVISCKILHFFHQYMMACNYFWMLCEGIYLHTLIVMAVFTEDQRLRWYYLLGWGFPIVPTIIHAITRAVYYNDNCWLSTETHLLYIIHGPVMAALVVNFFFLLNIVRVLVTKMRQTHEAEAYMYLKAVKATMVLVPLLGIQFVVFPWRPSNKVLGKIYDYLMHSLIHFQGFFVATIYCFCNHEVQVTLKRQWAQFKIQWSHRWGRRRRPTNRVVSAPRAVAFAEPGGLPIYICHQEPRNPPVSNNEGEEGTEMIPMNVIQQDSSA
In words: cAMP production in HEK cells with stable recombinant expression of rat calcitonin receptor (rat CTR). The data set is classed as cell-based. The following applies: assay buffer with 0.1% BSA. A digest of the protocol: as §1

In data set [3] the target is T3, rat amylin receptor (calcitonin receptor co-expressed with receptor activity modifying protein, RAMP3) (Rat AMYR3) (Rattus norvegicus, UniProt P32214+Q9JJ73).
T3 construct: expressed in transfected cells
T3 sequence (P32214 25-516): T2 sequence (P32214 25-516)
T3 sequence (Q9JJ73 23-147 partner): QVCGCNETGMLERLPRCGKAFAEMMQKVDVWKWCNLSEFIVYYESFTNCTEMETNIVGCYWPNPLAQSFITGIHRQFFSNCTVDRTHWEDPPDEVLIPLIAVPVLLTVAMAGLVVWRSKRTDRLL
Description: cAMP production in HEK cells with stable recombinant expression of rat amylin receptor (Rat AMYR3). The data set is classed as cell-based. To be noted: assay buffer with 0.1% BSA. An outline of the steps: as §1

In data set [4] the test system is lean rats. Description: Rat acute food intake study. The data set is classed as in vivo. To be noted: lean male Sprague Dawley rats, 20 nmol/kg subcutaneously. An outline of the steps:
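Male Sprague Dawley rats (n=7/group), fasted 6 h, received 20 nmol/kg test compound or 60 nmol/kg pramlintide subcutaneously 30 min before food return at dark onset. Food intake recorded automatically in home cages over 3 days, binned hourly and analysed as cumulative dark-period intake; body weight taken daily.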

The nature of data set [5]: Pharmacokinetic determination via IV and SC administration in Sprague Dawley rats. The following applies: male, rat, plasma, 20 nmol/kg.
Description: PK studies were performed to determine the half-life (T1/2) of test peptides. T1/2 describes the time taken for the maximum plasma concentration (Cmax) of a test substance to halve its steady-state concentration when in circulation.
Male SD rats were purchased from Si Bei Fu Laboratory Animal Technology Co. Ltd (China). The animals were 6-8 weeks old with body weights of 200-300 g on the dosing date. The animals were housed in a 12-hour light/12-hour dark cycle environment and were fasted overnight before dosing. The body weight of the animals were recorded before dosing, 24 h and 48 h post dosing . Animals had free access to food and drinks, and the food consumption was quantified every day.
Test articles were administered at 20 nmol/kg. Blood samples were collected from each animal via Jugular vein.
The blood samples were transferred into eppendorf low binding tube containing K2 EDTA. Above 0.150 mL blood were collected at each time point. Blood samples were centrifuged at 4,000 g for 5 minutes at 4° C. to obtain plasma. The plasma samples were stored frozen at −75±15° C. until analysis.
Concentrations of the test articles in the plasma samples were analyzed using a LC-MS/MS method. Data acquisition was performed by LabSolution version 5.89 software (Shimadzu, Kyoto, Japan). Data statistics were performed using Excel 97-2003 software. The pharmacokinetic parameters of test articles were calculated using a non-compartmental approach with Phoenix™ VVinNonlin® 6.1.
The following pharmacokinetic parameters were calculated, whenever possible from the plasma concentration versus time data: • IV administration: T1/2, C0, AUClast, AUCinf, MRTinf, Cl, Vss, Number of Points for Regression. • SC administration: Tmax, Cmax, AUClast, AUCinf, MRTinf, F, Number of Points for Regression.
In data set [6] the target is T4, human amylin receptor (calcitonin receptor co-expressed with receptor activity modifying protein, RAMP3) (hAMYR3) (Homo sapiens, UniProt O60896+P30988).
T4 construct: expressed in transfected cells
T4 sequence (P30988 25-474): T1 sequence (P30988 25-474)
T4 sequence (O60896 24-148 partner): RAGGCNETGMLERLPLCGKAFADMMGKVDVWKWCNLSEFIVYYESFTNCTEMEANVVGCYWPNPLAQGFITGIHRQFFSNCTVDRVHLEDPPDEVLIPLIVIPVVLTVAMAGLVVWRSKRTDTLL
In words: cAMP production in 1321N1 cells with stable recombinant expression of human amylin receptor (hAMYR3). The data set is classed as cell-based. To be noted: for Ratio (selectivity hAMYR vs hCTR, ratio of EC50 values at the two receptors): EC50 hCTR / EC50 hAMYR3; for EC50: cAMP, 1321N1 cells, assay buffer with 0.1% BSA, read-out: EC50 (pM) hAMYR3. A digest of the protocol:
as §1

The conditions of data set [7]: Roth et al. Br J Pharmacol 2012; cited from earlier work.

Numbered stars: 1 amine (or outer) side, 2 acyl side, 3 side chain; on linkers, the order of the positions; unused ones are H or OH. Bridge positions count the residues as written; N and C are the ends. Square brackets hold non-standard residues; d marks the D form. Side chains are listed from the residue outwards. Ends that are not written are not given here. Peptide text beside a SMILES is read from it. * marks the point of attachment. C18 diacid = O=C(O)CCCCCCCCCCCCCCCCC(=O)*; γGlu = O=C(O)[C@H](CCC(=O)[*:2])N[*:1]; Aib = CC(C)(N)C(=O)O

As for `CC[C@H](C)[C@H](NC(=O)[C@@H]1CCCN1C(=O)CNC(=O)[C@H](Cc1ccccc1)NC(=O)[C@H](CC(N)=O)NC(=O)[C@H](CC(N)=O)NC(=O)[C@H](CO)NC(=O)[C@H](CO)NC(=O)[C@H](Cc1c[nH]cn1)NC(=O)C(C)(C)NC(=O)[C@H](CC(C)C)NC(=O)[C@H](Cc1ccccc1)NC(=O)[C@H](CC(N)=O)NC(=O)[C@H](C)NC(=O)[C@H](CC(C)C)NC(=O)[C@H](CCCNC(=N)N)NC(=O)[C@H](CCC(N)=O)NC(=O)[C@@H](NC(=O)[C@H](C)NC(=O)[C@@H]1CSSC[C@H](NC(=O)[C@@H](N)CCCCNC(=O)CC[C@H](NC(=O)CCCCCCCCCCCCCCCCC(=O)O)C(=O)O)C(=O)N[C@@H](CC(N)=O)C(=O)N[C@@H]([C@@H](C)O)C(=O)N[C@@H](C)C(=O)N[C@@H]([C@@H](C)O)C(=O)N1)[C@@H](C)O)C(=O)N[C@@H](CC(C)C)C(=O)N1CCC[C@H]1C(=O)N1CCC[C@H]1C(=O)N[C@H](C(=O)N[C@@H](CC(N)=O)C(=O)N[C@H](C(=O)NCC(=O)N[C@@H](CO)C(=O)N[C@@H](CC(N)=O)C(=O)N[C@H](C(=O)N[C@@H](Cc1ccc(O)cc1)C(N)=O)[C@@H](C)O)C(C)C)[C@@H](C)O` [Peptide 149] (H-K([γGlu-C18 diacid])CNTATCATQRLANFL[Aib]HSSNNFGPILPPTNVGSNTY-NH2; disulfide 2-7; N-terminus assumed), the EC50 in data set [1] is 1200 pM; in data set [2], 522 pM; in data set [3], 5.6 pM; in data set [6] it was 130 pM. Also, the “Cummulative food intake (% vehicle treated intake) At 12 h” value in data set [4] amounted to 31 % vehicle treated intake. Also, in data set [4], the “Cummulative food intake (% vehicle treated intake) At 24 h” value was determined as 31.8 % vehicle treated intake. Moreover, the “Cummulative food intake (% vehicle treated intake) At 48 h” value in data set [4] came to 17.5 % vehicle treated intake. In addition, the half-life in data set [5] (iv) was 414 min; in data set [5] (sc), 558 min. Also, the “Ratio (selectivity hAMYR vs hCTR, ratio of EC50 values at the two receptors)” value in data set [6] was found to be 9.2.

Take `CC[C@H](C)[C@H](NC(=O)[C@@H]1CCCN1C(=O)CNC(=O)[C@H](Cc1ccccc1)NC(=O)[C@H](CC(N)=O)NC(=O)C(C)(C)NC(=O)[C@H](CO)NC(=O)[C@H](CO)NC(=O)[C@H](Cc1c[nH]cn1)NC(=O)[C@H](CCCNC(=N)N)NC(=O)[C@H](CC(C)C)NC(=O)[C@H](Cc1ccccc1)NC(=O)[C@H](CC(N)=O)NC(=O)[C@H](C)NC(=O)[C@H](CC(C)C)NC(=O)[C@H](CCCNC(=N)N)NC(=O)[C@H](CCC(N)=O)NC(=O)[C@@H](NC(=O)[C@H](C)NC(=O)[C@@H]1CSSC[C@H](NC(=O)[C@H](CCCCN)NC(=O)[C@@H](N)CCCCNC(=O)CC[C@H](NC(=O)CCCCCCCCCCCCCCCCC(=O)O)C(=O)O)C(=O)N[C@@H](CC(N)=O)C(=O)N[C@@H]([C@@H](C)O)C(=O)N[C@@H](C)C(=O)N[C@@H]([C@@H](C)O)C(=O)N1)[C@@H](C)O)C(=O)N[C@@H](CC(C)C)C(=O)N1CCC[C@H]1C(=O)N1CCC[C@H]1C(=O)N[C@H](C(=O)N[C@@H](CCC(=O)O)C(=O)N[C@H](C(=O)NCC(=O)N[C@@H](CO)C(=O)N[C@@H](CC(N)=O)C(=O)N[C@H](C(=O)N[C@@H](Cc1ccc(O)cc1)C(N)=O)[C@@H](C)O)C(C)C)[C@@H](C)O` [Peptide 43, K(γE-C18diacid)K[CNTATC]ATQRLANFLRHSS(Aib)NFGPILPPTEVGSNTY-amide] (H-K([γGlu-C18 diacid])KCNTATCATQRLANFLRHSS[Aib]NFGPILPPTEVGSNTY-NH2; disulfide 3-8; N-terminus assumed): the EC50 in data set [1] is 19000 pM; in data set [2], 3650 pM; in data set [3], 14.5 pM; in data set [6] it was 647 pM. Moreover, in data set [4], the “Cummulative food intake (% vehicle treated intake) At 12 h” value is on record as 60.8 % vehicle treated intake. Moreover, in data set [4], the “Cummulative food intake (% vehicle treated intake) At 24 h” value is on record as 55.6 % vehicle treated intake. For the same molecule, the “Cummulative food intake (% vehicle treated intake) At 48 h” value in data set [4] was 46.6 % vehicle treated intake. For the same molecule, the half-life in data set [5] (iv) is 558 min; in data set [5] (sc), 600 min. Further, the “Ratio (selectivity hAMYR vs hCTR, ratio of EC50 values at the two receptors)” value in data set [6] worked out at 29.

For the molecule “amylin (KCNTATCATQRLANFLVHSSNNFGAILSSTNVGSNTY; not fully specified (C-terminus, bridges); cysteine pairing not given here; UniProt P10997 34-70, looked up) [native amylin, of which pramlintide is a synthetic analogue with three proline substitutions]”, in data set [7], the “terminal half-life in rats” value is listed as “around 13 minutes”.
